Consider two compounds from patent US10765657B2, “Selamectin for treatment of sea lice infestations” (priority 2013, dated 2020).

One experiment concerns naïve sea lice. Kind of experiment: Prophylactic efficacy of medicated feed against sea lice challenge in fish. The experiment is classed as in vivo. On the procedure:
Experimental diets containing selamectin were administered to 15×2 m diameter tanks of 75 fish by voluntary feeding from Day 0 to Day 6. […] The study evaluated the three concentrations of test material in comparison to a negative control (placebo) and a positive control. Each group was run as triplicate tanks. In each group, sea lice were evaluated using a representative sample of 5 fish per tank on Day −1 (pre-treatment) and 10 fish per tank on days 10 and 30 (4 and 24 days post-treatment).
The prophylactic effect of treatment was determined by removing lice and using further sea lice challenges at intervals. All adult lice were removed from remaining fish following Day 30 and a further sea lice challenge took place on Day 37 (31 days post treatment) and lice counts and tissue samples taken from 10 fish per tank on Day 60 (53 days post treatment).
All adult lice were removed from remaining fish following Day 64 and 12 fish per tank were moved to 15×1 m diameter tanks. On Day 67 (61 days post-treatment) the fish in these 1 m tanks received a further sea lice challenge and on Day 90 (84 days post-treatment) lice counts and tissue samples were taken from 10 fish per tank.
On Day 76 (70 days post-treatment) the fish remaining in 2 m tanks received a further naïve sea lice challenge and on Day 99 (93 days post-treatment) lice counts and tissue samples were taken from 10 fish per tank.

Experiment [1] concerns naïve sea lice, Lepeophtheirus salmonis. Kind of experiment: Static 24 hour sea lice bioassay, naïve strain. The conditions noted are these: 24 hours exposure, 0.2% DMSO in seawater, about 10-12° C.
Experiment [2] has as its system emamectin benzoate resistant sea lice, Lepeophtheirus salmonis. Description: Static 24 hour sea lice bioassay, emamectin benzoate resistant strain. The note with it: 24 hours exposure, 0.2% DMSO in seawater, about 10-12° C.

For the compound `CO[C@H]1C[C@H](O[C@@H]2/C(C)=C/C[C@@H]3C[C@@H](C[C@]4(CC[C@H](C)[C@@H](C5CCCCC5)O4)O3)OC(=O)[C@@H]3C=C(C)/C(=N/O)[C@H]4OC/C(=C\C=C\[C@@H]2C)[C@]43O)O[C@@H](C)[C@@H]1O` [Selamectin, selamectin], the prophylactic efficacy is 99.6% with naïve sea lice (40 μg/kg/day oral in feed, Day 0 to Day 6, at 4.4 weeks); 68.4% in the experiment with naïve sea lice (40 μg/kg/day oral in feed, Day 0 to Day 6, at 10 weeks); 100% with naïve sea lice (160 μg/kg/day oral in feed, Day 0 to Day 6, at 4.4 weeks); 98.5% in the experiment on naïve sea lice (160 μg/kg/day oral in feed, Day 0 to Day 6, out to 10 weeks). Besides, the figures for the “Adult females EC50” value in experiment [1] and in experiment [2] were 10.68 ppb and 16.91 ppb, respectively. The “Adult males EC50” value was 3.21 ppb in experiment [1] and 6.95 ppb in experiment [2].

emamectin benzoate: the prophylactic efficacy is 100% with naïve sea lice (50 μg/kg/day (commercially licensed value) oral in feed, at 4.4 weeks) and 72.9% in the experiment on naïve sea lice (50 μg/kg/day (commercially licensed value) oral in feed, out to 10 weeks). The “Adult females EC50” value in experiment [1] came to 29 ppb; in experiment [2] it was 65 ppb. Also, the “Adult males EC50” value in experiment [1] worked out at 112 ppb; in experiment [2] it was 202 ppb.
